Measurements published in patent publication US20150010474A1, “Compounds And Methods For Selective Imaging And/Or Ablation” (Auckland Uniservices Limited, priority 2011, published 2015).

Tests used:
CO-Frp (V.h) = target: T1, CO-Frp (V.h) (Vibrio harveyi, UniProt Q56691); assay: Initial rate of metabolism by purified recombinant bacterial nitroreductase (NADPH consumption, UV/Vis); format: biochemical; conditions: compound 500 μM, NADPH 200 μM, 10 mM Tris-Cl pH 7.0; μmol NADPH consumed per mg enzyme per minute
T1 construct: made in house
Method: (§1) The relative initial rates of reductive metabolism of the nitro moiety of test compounds by bacterial nitroreductase's can be measured experimentally by incubating the test compound at near-saturating concentration (determined empirically) with the purified recombinant bacterial nitroreductase enzymes in the presence of NADPH co-factor. UV/Vis spectroscopy is used to measure consumption of the co-factor, indicating metabolism of the test compound by the nitroreductase.
(§2) Compounds 67, 93 and 97 (500 μM) were added to NADPH (200 μM) in 10 mM Tris-Cl pH 7.0. Reactions were initiated by enzyme addition (between 5 and 20 μg per reaction). Rates represent μmol of NADPH consumed per mg enzyme added per minute.

NfrA (B.s) = target: T2, NfrA (B.s) (Bacillus subtilis, UniProt P39605); assay: as above; format: biochemical; conditions: compound 500 μM, NADPH 200 μM, 10 mM Tris-Cl pH 7.0; μmol NADPH consumed per mg enzyme per minute
T2 construct: made in house
Method: as §1, §2

NfsA (E.c) = target: T3, NfsA (E.c) (Escherichia coli, UniProt P17117); assay: as above; format: biochemical; conditions: compound 500 μM, NADPH 200 μM, 10 mM Tris-Cl pH 7.0; μmol NADPH consumed per mg enzyme per minute
T3 construct: made in house
Method: as §1, §2

[1] = system: HCT116 wild type (WT) cancer cells; assay: Inhibition of cell proliferation, low cell density IC50 assay; format: cell-based; conditions: Homo sapiens, HCT-116; 4 hour drug exposure, washing and regrowth for 5 days
Method: IC50 values were determined as the concentration of prodrug required to inhibit cell growth by 50% of untreated controls following 4 hour drug exposure, with washing and regrowth for 5 days. WT:NfsA ratios were determined as the WT IC50/NfsA IC50.

[2] = system: human lung tumour xenograft NCI-H1299 harbouring approximately 5% NfsA-positive cells; assay: In vivo binding by immunohistochemistry in mixed NfsA/WT xenograft; parameters: species or system NIH-III nude mice; conditions: 60 mg/kg i.p., tumours excised after 60 minutes; ELK3-51-CY5 antibody
Method: FIG. 8 illustrates the in vivo binding of compounds 15, 93 and 67 in the human lung tumour xenograft NCI-H1299 harbouring approximately 5% NfsA-positive cells. […] Mixed NfsA/WT NCI-H1299 cells were inoculated subcutaneously onto the flank of NIH-III nude mice. When the mixed tumours reached approximately 500 mm^3, mice were dosed i.p. with 60 mg/kg of either compound 15, compound 93 or compound 67. After 60 minutes the tumours were excised, and fixed in formalin before being embedded in paraffin wax. Tumour section were cut (5 microns) and mounted onto glass slides for immunodetection of bound adducts of compound 15, compound 93 or compound 67 using the monoclonal antibody ELK3-51 directly conjugated to the fluorophore CY5 (Ex/Em 650/670 nm). Fluorescent microscopy was employed to visualise the presence of cellular adducts of each test compound present in individual tumour cells. Image gain was reduced due to intense fluorescent signal indicating extensive adduct binding. Images were acquired on a Zeiss LSM 710 confocal microscope (×20 magnification).

[3] = system: human solid tumour xenograft NCI-H1299 (WT); assay: Hypoxia-dependent binding by ex vivo flow cytometry with pimonidazole co-staining; format: in vivo, NIH-III nude mice; conditions: 60 mg/kg i.p.; tumours excised after 120 minutes, single cell suspension
Method: FIG. 11 illustrates the absence of hypoxic-dependent binding of compound 67 and compound 93 by flow cytometry in the human solid tumour xenograft NCI-H1299, with reference to hypoxia staining by compound 15 and pimonidazole (Hypoxyprobe™) as internal standards (positive controls). NCI-H1299 WT tumours were inoculated subcutaneously onto the flank of NIH-III nude mice. When the mixed tumours reached approximately 800 mm^3, mice were dosed i.p. with 60 mg/kg of pimonidazole, and 60 minutes later dosed with either 60 mg/kg of compound 15, or 60 mg/kg of compound 67, or 60 mg/kg of compound 93. After 120 minutes the tumours were excised and enzyme digested to form a single cell suspension before fixation in ice cold 80% ethanol. Single cell immunodetection of bound adducts of compounds was performed using a monoclonal antibody (Mab1, hybridoma clone 4.3.11.3) conjugated to Alexa-488 (Ex/Em 499/519; green) for the detection of pimonidazole adducts, and monoclonal antibody ELK3-51 directly conjugated to the fluorophore CY5 (Ex/Em 650/670 nm; red) for detection of adducts formed by compound 15 or compound 67 or compound 93. The ex-vivo tumour cell samples were analysed on a Becton Dickinson FACscan flow cytometer using FACS Diva software. Integrated fluorescence measurements were recorded for 10,000 single non-debris events. Fluorescence emission was monitored at 530 nm±20 and 670-700 nm for detection of Alexa-488 and CY5 conjugated monoclonal antibodies, respectively.

T3 sequence (P17117 whole entry): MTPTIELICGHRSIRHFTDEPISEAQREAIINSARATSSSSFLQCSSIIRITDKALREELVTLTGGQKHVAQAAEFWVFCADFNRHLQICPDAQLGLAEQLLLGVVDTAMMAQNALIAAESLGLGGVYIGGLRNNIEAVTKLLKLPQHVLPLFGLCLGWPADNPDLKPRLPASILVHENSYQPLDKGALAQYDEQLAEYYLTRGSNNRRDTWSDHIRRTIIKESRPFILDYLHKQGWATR
T2 sequence (P39605 whole entry): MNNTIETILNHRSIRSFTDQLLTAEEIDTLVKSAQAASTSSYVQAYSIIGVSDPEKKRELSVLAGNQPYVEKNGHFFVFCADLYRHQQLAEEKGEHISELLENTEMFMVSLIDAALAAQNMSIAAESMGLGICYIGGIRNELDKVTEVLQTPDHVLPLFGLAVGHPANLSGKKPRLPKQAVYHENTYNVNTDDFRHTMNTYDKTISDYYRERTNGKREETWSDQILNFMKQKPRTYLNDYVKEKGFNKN
T1 sequence (Q56691 whole entry): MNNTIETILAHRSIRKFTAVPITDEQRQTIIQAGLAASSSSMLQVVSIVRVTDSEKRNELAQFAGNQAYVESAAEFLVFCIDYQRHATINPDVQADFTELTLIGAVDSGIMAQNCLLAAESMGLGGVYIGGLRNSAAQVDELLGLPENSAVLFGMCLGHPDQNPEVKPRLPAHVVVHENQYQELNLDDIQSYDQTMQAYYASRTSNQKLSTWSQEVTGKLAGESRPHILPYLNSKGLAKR

SMILES: Cc1ncc([N+](=O)[O-])n1CC(=O)NCC(F)(F)C(F)(F)F [Compound 67, 2-(2-methyl-5-nitro-1H-imidazol-1-yl)-N-(2,2,3,3,3-pentafluoropropyl)acetamide]
- Rate of metabolism by CO-Frp (V.h) (CO-Frp (V.h)): 1.1 µmol/min/mg
- Rate of metabolism by NfrA (B.s) (NfrA (B.s)): 1.7 µmol/min/mg
- Rate of metabolism by NfsA (E.c) (NfsA (E.c)): 2.7 µmol/min/mg
- IC50 [1]: 6.31 mM
- Detection of NfsA expressing cells after in vivo binding (FIG. 8) [2]: readily detected by immunohistochemistry with single cell resolution
- Hypoxia-dependent binding in NCI-H1299 WT tumours, flow cytometry (FIG. 11) [3]: unable to bind to and thus detect pimonidazole-positive (hypoxic) tumour cells

SMILES: O=C(Cn1cnc([N+](=O)[O-])c1)NCC(F)(F)C(F)(F)F [Compound 93, 2-(4-nitro-1H-imidazol-1-yl)-N-(2,2,3,3,3-pentafluoropropyl)acetamide]
- Rate of metabolism by CO-Frp (V.h) (CO-Frp (V.h)): 12.2 µmol/min/mg
- Rate of metabolism by NfrA (B.s) (NfrA (B.s)): 7.5 µmol/min/mg
- Rate of metabolism by NfsA (E.c) (NfsA (E.c)): 7.6 µmol/min/mg
- IC50 [1]: 1.45 mM
- Detection of NfsA expressing cells after in vivo binding (FIG. 8) [2]: readily detected by immunohistochemistry with single cell resolution
- Hypoxia-dependent binding in NCI-H1299 WT tumours, flow cytometry (FIG. 11) [3]: unable to bind to and thus detect pimonidazole-positive (hypoxic) tumour cells
